The results in this text go back to US6162832A, “2-Phenoxyaniline derivatives” (Taisho Pharmaceutical Co., Inc., priority 1997, dated 2000).

Structures can show the parent of a compound that is named as a salt.

In this experiment the target is T1, Na^+ /Ca^2+ Exchange System (Canis lupus familiaris, UniProt P23685).
T1 construct: Sarcolemmal vesicles prepared from the removed dog ventricular muscles; from tissue; host or cells: dog ventricular muscle, sarcolemmal vesicles
In words: Inhibitory Action on a Na^+ /Ca^2+ Exchange System using Cardiac Sarcolemmal Vesicles. The format is biochemical. As to conditions: 10 s; 1 μM test drug; dog ventricular sarcolemmal vesicles; 45Ca uptake, 10 seconds; remaining activity vs vehicle-treated group; read-out: Na^+ /Ca^2+ exchange activity (% of control). As to the method:
Inhibitory Action on a Na^+ /Ca^2+ Exchange System using Cardiac Sarcolemmal Vesicles Sarcolemmal vesicles prepared from the removed dog ventricular muscles according to the method described in the literature (L. R. Jones, Methods, Enzymol., 1988, 157, pp. 85) were used. A Na^+ /Ca^2+ exchange activity using the sarcolemmal vesicles was measured according to the method described in the literature (K. D. Philipson, et al., J. Biol. Chem., 1980, 255, pp. 6880). First, the sarcolemmal vesicles were suspended in a sodium-containing solution [160 mM sodium chloride, 20 mM Tris-hydrochloric acid (pH 7.4)] to make up to a protein concentration of 1.5 mg/ml, and allowed to stand for an hour to load Na^+ in the sarcolemmal vesicles. To 2.5 μl of the sarcolemmal vesicles was added 125 μl of a [^45 Ca]-calcium chloride solution [20 μM [^45 Ca]-calcium chloride, 160 mM potassium chloride and 20 mM Mops-Tris (pH 7.4)], and after 10 seconds, 900 μl of an ice-cooled lanthanum chloride solution [10 mM lanthanum chloride, 160 mM potassium chloride and 20 mM Mops-Tris (pH 7.4)] was added. The sarcolemmal vesicles were recovered on a nitrocellulose filter by suction filtration and washed three times with 900 μl of a lanthanum chloride solution. The […] of Ca^2+ uptake in the sarcolemmal vesicles was determined by measuring a ^45 Ca radioactivity by a scintillator. In addition, a Na^+ /Ca^2+ exchange activity-independent Ca^2+ uptake in the sarcolemmal vesicles was determined by carrying out the same procedure using a potassium-containing solution [160 mM potassium chloride, 20 mM Tris-hydrochloric acid (pH 7.4)] instead of the sodium-containing solution. The test compound was used as a dimethyl sulfoxide solution thereof, and its inhibitory effect was evaluated in comparison with the vehicle-treatedgroup.
As for `Nc1ccccc1Oc1ccc(OCc2ccc(F)cc2F)cc1` [Compound 8, 2-[4-(2,4-Difluorobenzyloxy)phenoxy]aniline hydrochloride], the remaining activity at 1 µM stood at 47%.

Regarding `Nc1ccccc1Oc1ccc(OCc2cc(F)ccc2F)cc1` [Compound 4, 2-[4-(2,5-Difluorobenzyloxy)phenoxy]aniline hydrochloride], the remaining activity at 1 µM stood at 27%.

Regarding `CCOc1ccc(Oc2ccc(OCc3cccc(F)c3F)cc2)c(N)c1` [Compound 10, 2-[4-(2,3-Difluorobenzyloxy)phenoxy]-5-ethoxyaniline hydrochloride], the remaining activity at 1 µM turned out to be 45%.

Take `Nc1ccccc1Oc1ccc(OCc2cccc(F)c2F)cc1` [Compound 3, 2-[4-(2,3-Difluorobenzyloxy)phenoxy]aniline hydrochloride]: the remaining activity at 1 µM was 38%.

Turning to `CCOc1ccc(Oc2ccc(OCc3c(F)cccc3F)cc2)c(N)c1` [Compound 7, 2-[4-(2.6-Difluorobenzyloxy)phenoxy]-5-ethoxyaniline hydrochloride], the remaining activity at 1 µM was 33%.

As to `CCOc1ccc(Oc2ccc(OCc3cc(F)ccc3F)cc2)c(N)c1` [Compound 6, 2-[4-(2.5-Difluorobenzyloxy)phenoxy]-5-ethoxyaniline hydrochloride], the remaining activity at 1 µM was 39%.

As to `Nc1ccccc1Oc1ccc(OCc2c(F)cccc2F)cc1` [Compound 5, 2-[4-(2,6-Difluorobenzyloxy)phenoxy]aniline hydrochloride], the remaining activity at 1 µM was found to be 43%.
